The results in this text go back to patent US10745346B2, “Agonists of protein tyrosine phosphatase SHP-1” (priority 2015, dated 2020).

The IC50 is the concentration that gives 50% inhibition. A lower IC50 goes with greater potency.

Assay [1] concerns the target Recombinant SHP-1 protein (Homo sapiens, UniProt P29350). The experiment in a line: SHP-1 phosphatase activity assay (RediPlate 96 EnzChek Tyrosine Phosphatase Assay kit). Format: biochemical. The following applies: SC derivatives at 1 μM for 2 hr; recombinant SHP-1 25 ng; control DMSO = 100; mean±SD (N=3). The protocol: Effects of SC Derivatives on Phosphatase Activity in Recombinant SHP-1 RediPlate 96 EnzChek Tyrosine Phosphatase Assay kit (R-22067) was used for SHP-1 activity assay (Molecular Probes). Recombinant SHP-1 protein (25 ng) was reacted with SC derivatives at 1 μM for 2 hr. Then the SHP-1 phosphatase activity assay was performed according to the user's manual and the absorbance was measured at 465 nm. The control group was DMSO, which functioned as the solvent of the SC derivatives. The values were expressed by mean±SD (N=3).

Assay [2] concerns PLC5 cells (a hepatocellular carcinoma cell line). The experiment in a line: Cytotoxicity, MTT cell viability assay. The format is cell-based. The settings on record: 72 h exposure. The protocol:
PLC5 cells (a hepatocellular carcinoma cell line) were seeded at 5×10^3 cells per well in 96-well plates. Then, cells were exposed to SC derivatives at the indicated doses for 72 h. After that, cells were incubated with MTT (1 mg/ml) (Sigma-Aldrich, St. Louis, Mo.) for 2 h at 37° C. Cell viability was then assessed by measuring the absorbance at 570 nm using a microplate reader.

Chain of Recombinant SHP-1 protein (P29350 whole entry): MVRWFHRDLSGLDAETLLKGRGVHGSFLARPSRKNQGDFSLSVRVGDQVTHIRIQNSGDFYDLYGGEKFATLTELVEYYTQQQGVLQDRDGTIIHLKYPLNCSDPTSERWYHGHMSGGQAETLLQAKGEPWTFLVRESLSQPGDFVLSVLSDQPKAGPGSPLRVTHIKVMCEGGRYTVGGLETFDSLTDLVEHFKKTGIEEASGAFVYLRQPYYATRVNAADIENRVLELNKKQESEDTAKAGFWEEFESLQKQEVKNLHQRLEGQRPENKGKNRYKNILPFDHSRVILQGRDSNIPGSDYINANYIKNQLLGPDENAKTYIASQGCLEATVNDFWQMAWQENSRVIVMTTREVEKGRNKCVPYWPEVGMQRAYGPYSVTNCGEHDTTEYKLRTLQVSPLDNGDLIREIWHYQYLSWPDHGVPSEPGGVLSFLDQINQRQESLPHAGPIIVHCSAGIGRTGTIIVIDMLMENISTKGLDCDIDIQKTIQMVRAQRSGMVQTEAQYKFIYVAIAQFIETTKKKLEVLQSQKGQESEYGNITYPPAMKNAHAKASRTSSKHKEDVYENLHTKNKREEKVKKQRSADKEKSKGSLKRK

Take `N#Cc1ccc(Oc2ccc(F)c(NC(=O)Nc3ccc(F)c(C(F)(F)F)c3)c2)cc1` [compound 145, 1-(5-(4-cyanophenoxy)-2-fluorophenyl)-3-(4-fluoro-3-(trifluoromethyl)phenyl)urea]: in assay [1], the “SHP-1 Activity (% of control)” value is on record as 168.15 ± 1.97 % of control. Besides, the IC50 in assay [2] was 850 nM.

On to `N#CCc1ccc(NC(=O)Nc2cc(Oc3ccc(C#N)cc3)ccc2F)cc1` [compound 146, 1-(4-(cyanomethyl)phenyl)-3-(5-(4-cyanophenoxy)-2-fluorophenyl)urea], for which the “SHP-1 Activity (% of control)” value in assay [1] is on record as 139.68 ± 6.63 % of control. Further, 2590 nM corresponded to half-maximal inhibition in assay [2] (IC50).

Take `N#Cc1ccc(Oc2cc(NC(=O)Nc3cc(C(F)(F)F)cc(C(F)(F)F)c3)ccc2Cl)cc1` [compound 148, 1-(3,5-bis(trifluoromethyl)phenyl)-3-(4-chloro-3-(4-cyanophenoxy)phenyl) urea]: the “SHP-1 Activity (% of control)” value in assay [1] is listed as 363.95 ± 18.11 % of control. In assay [2], this molecule registered an IC50 of 220 nM.

As for `N#CCc1ccc(NC(=O)Nc2ccc(Cl)c(Oc3ccc(C#N)cc3)c2)cc1` [compound 149, 1-(4-chloro-3-(4-cyanophenoxy)phenyl)-3-(4-(cyanomethyl)phenyl)urea], the “SHP-1 Activity (% of control)” value in assay [1] is 140.90 ± 6.65 % of control. The molecule also came in with an IC50 in assay [2] of 1380 nM.

On to `C#Cc1cccc(NC(=O)Nc2ccc(F)c(Oc3ccc(C#N)cc3)c2)c1` [compound 150, 1-(3-(4-cyanophenoxy)-4-fluorophenyl)-3-(3-ethynylphenyl)urea], for which the “SHP-1 Activity (% of control)” value in assay [1] is 129.59 ± 59 % of control. The IC50 in assay [2] is 2230 nM.

Turning to `N#Cc1ccc(Oc2cc(NC(=O)Nc3cccc(C(F)(F)F)c3)ccc2F)cc1` [compound 151, 1-(3-(4-cyanophenoxy)-4-fluorophenyl)-3-(3-(trifluoromethyl)phenyl)urea], the “SHP-1 Activity (% of control)” value in assay [1] is 136.00 ± 9.09 % of control. Besides, the 50% inhibitory concentration (IC50) in assay [2] stood at 590 nM.

With `N#Cc1ccc(Oc2cc(NC(=O)Nc3cc(C(F)(F)F)cc(C(F)(F)F)c3)ccc2F)cc1` [compound 152, 1-(3,5-bis(trifluoromethyl)phenyl)-3-(3-(4-cyanophenoxy)-4-fluorophenyl) urea], in assay [1], the “SHP-1 Activity (% of control)” value was 336.99 ± 50.76 % of control. Further, inhibition in assay [2] was half-maximal at 340 nM (IC50).

`N#CCc1ccc(NC(=O)Nc2ccc(F)c(Oc3ccc(C#N)cc3)c2)cc1` [compound 153, 1-(4-(cyanomethyl)phenyl)-3-(3-(4-cyanophenoxy)-4-fluorophenyl)urea]: the “SHP-1 Activity (% of control)” value in assay [1] is 135.54 ± 5.11 % of control. This molecule came in with an IC50 in assay [2] of 1830 nM.

As for `N#Cc1ccc(Oc2cc(NC(=O)Nc3ccc(F)c(C(F)(F)F)c3)ccc2F)cc1` [compound 154, 1-(3-(4-cyanophenoxy)-4-fluorophenyl)-3-(4-fluoro-3-(trifluoromethyl)phenyl)urea], in assay [1], the “SHP-1 Activity (% of control)” value is 115.12 ± 3.84 % of control. In addition, the IC50 in assay [2] is 620 nM.

For `N#Cc1ccc(Oc2ccc3c(c2)N(C(=O)Nc2ccc(F)c(C(F)(F)F)c2)CCO3)cc1` [compound 156, 6-(4-cyanophenoxy)-N-(4-fluoro-3-(trifluoromethyl)phenyl)-2H-benzo[b][1,4]oxazine-4(3H)-carboxamide], in assay [1], the “SHP-1 Activity (% of control)” value is recorded as 112.47 ± 7.98 % of control. Further, the IC50 in assay [2] stood at 1870 nM.

`N#Cc1ccc(Oc2ccc3c(c2)N(C(=O)Nc2ccc(Cl)c(C(F)(F)F)c2)CCO3)cc1` [compound 157, N-(4-chloro-3-(trifluoromethyl)phenyl)-6-(4-cyanophenoxy)-2H-benzo[b][1,4]oxazine-4(3H)-carboxamide]: in assay [1], the “SHP-1 Activity (% of control)” value is reported as 106.27 ± 6.28 % of control. In addition, 1760 nM corresponded to half-maximal inhibition in assay [2] (IC50).

Take `N#Cc1ccc(Oc2ccc3c(c2)N(C(=O)Nc2cc(C(F)(F)F)cc(C(F)(F)F)c2)CCO3)cc1` [compound 158, N-(3,5-bis(trifluoromethyl)phenyl)-6-(4-cyanophenoxy)-2H-benzo[b][1,4]oxazine-4(3H)-carboxamide]: the “SHP-1 Activity (% of control)” value in assay [1] is on record as 102.07 ± 3.47 % of control. In assay [2], this molecule displayed an IC50 of 3310 nM.

For the molecule `N#Cc1ccc(Oc2ccc3c(c2)N(C(=O)Nc2cccc(C(F)(F)F)c2)CCO3)cc1` [compound 159, 6-(4-cyanophenoxy)-N-(3-(trifluoromethyl)phenyl)-2H-benzo[b][1,4]oxazine-4(3H)-carboxamide], the “SHP-1 Activity (% of control)” value in assay [1] was 98.04 ± 8.80 % of control. Besides, the IC50 in assay [2] was 2560 nM.

On to `N#CCc1ccc(NC(=O)N2CCOc3ccc(Oc4ccc(C#N)cc4)cc32)cc1` [compound 160, N-(4-(cyanomethyl)phenyl)-6-(4-cyanophenoxy)-2H-benzo[b][1,4]oxazine-4(3H)-carboxamide], for which the “SHP-1 Activity (% of control)” value in assay [1] is given as 116.47 ± 6.60 % of control. For the same molecule, the IC50 in assay [2] stood at 5130 nM.

As to `C#Cc1cccc(NC(=O)N2CCOc3ccc(Oc4ccc(C#N)cc4)cc32)c1` [compound 161, 6-(4-cyanophenoxy)-N-(3-ethynylphenyl)-2H-benzo[b][1,4]oxazine-4(3H)-carboxamide], the “SHP-1 Activity (% of control)” value in assay [1] is 140.58 ± 11.39 % of control. In assay [2], this molecule came in with an IC50 greater than 10000 nM.

For the molecule `C#Cc1cccc(NC(=O)N2CCOc3cc(Oc4ccc(C#N)cc4)ccc32)c1` [compound 162, 7-(4-cyanophenoxy)-N-(3-ethynylphenyl)-2H-benzo[b][1,4]oxazine-4(3H)-carboxamide], in assay [1], the “SHP-1 Activity (% of control)” value is recorded as 141.39 ± 15.44 % of control. In assay [2], this molecule had an IC50 of 3060 nM.

For the molecule `N#Cc1ccc(Oc2ccc3c(c2)OCCN3C(=O)Nc2cccc(C(F)(F)F)c2)cc1` [compound 163, 7-(4-cyanophenoxy)-N-(3-(trifluoromethyl)phenyl)-2H-benzo[b][1,4]oxazine-4(3H)-carboxamide], the “SHP-1 Activity (% of control)” value in assay [1] is given as 142.36 ± 2.16 % of control. In assay [2], 2510 nM corresponded to half-maximal inhibition (IC50).

Consider `N#Cc1ccc(Oc2ccc3c(c2)OCCN3C(=O)Nc2cc(C(F)(F)F)cc(C(F)(F)F)c2)cc1` [compound 164, N-(3,5-bis(trifluoromethyl)phenyl)-7-(4-cyanophenoxy)-2H-benzo[b][1,4]oxazine-4(3H)-carboxamide], for which, in assay [1], the “SHP-1 Activity (% of control)” value is given as 83.70 ± 10.90 % of control. Moreover, the IC50 in assay [2] is greater than 10000 nM.

`N#Cc1ccc(Oc2ccc3c(c2)OCCN3C(=O)Nc2ccc(Cl)c(C(F)(F)F)c2)cc1` [compound 165, N-(4-chloro-3-(trifluoromethyl)phenyl)-7-(4-cyanophenoxy)-2H-benzo[b][1,4]oxazine-4(3H)-carboxamide]: in assay [1], the “SHP-1 Activity (% of control)” value is listed as 169.27 ± 1.19 % of control. The IC50 in assay [2] was greater than 10000 nM.

Regarding `N#Cc1ccc(Oc2ccc3c(c2)OCCN3C(=O)Nc2ccc(F)c(C(F)(F)F)c2)cc1` [compound 166, 7-(4-cyanophenoxy)-N-(4-fluoro-3-(trifluoromethyl)phenyl)-2H-benzo[b][1,4]oxazine-4(3H)-carboxamide], the “SHP-1 Activity (% of control)” value in assay [1] was 51.89 ± 8.16 % of control. For the same molecule, half-maximal inhibition in assay [2] (IC50) was put at 1320 nM.

As to `N#CCc1ccc(NC(=O)N2CCOc3cc(Oc4ccc(C#N)cc4)ccc32)cc1` [compound 167, N-(4-(cyanomethyl)phenyl)-7-(4-cyanophenoxy)-2H-benzo[b][1,4]oxazine-4(3H)-carboxamide], in assay [1], the “SHP-1 Activity (% of control)” value was 110.58 ± 10.14 % of control. Also, the IC50 in assay [2] was 2550 nM.

Regarding `N#CCc1ccc(Oc2ccc(NC(=O)Nc3ccc(F)c(C(F)(F)F)c3)cc2)cc1` [compound 168, 1-(4-(4-(cyanomethyl)phenoxy)phenyl)-3-(4-fluoro-3-(trifluoromethyl)phenyl)urea], in assay [1], the “SHP-1 Activity (% of control)” value is 147.25 ± 78.63 % of control. This molecule also returned an IC50 in assay [2] of 1070 nM.

As for `N#CCc1ccc(NC(=O)Nc2ccc(Oc3ccc(CC#N)cc3)cc2)cc1` [compound 169, 1-(4-(4-(cyanomethyl)phenoxy)phenyl)-3-(4-(cyanomethyl)phenyl)urea], the “SHP-1 Activity (% of control)” value in assay [1] is on record as 126.25 ± 1.46 % of control. Further, in assay [2], the IC50 was greater than 10000 nM.

For `C#Cc1cccc(NC(=O)Nc2ccc(Oc3ccc(CC#N)cc3)cc2)c1` [compound 170, 1-(4-(4-(cyanomethyl)phenoxy)phenyl)-3-(3-ethynylphenyl)urea], in assay [1], the “SHP-1 Activity (% of control)” value was 101.42 ± 7.86 % of control. This molecule also registered an IC50 in assay [2] greater than 10000 nM.

On to `N#CCc1ccc(Oc2ccc(NC(=O)Nc3ccc(Cl)c(C(F)(F)F)c3)cc2)cc1` [compound 171, 1-(4-chloro-3-(trifluoromethyl)phenyl)-3-(4-(4-(cyanomethyl)phenoxy)phenyl)urea], for which the “SHP-1 Activity (% of control)” value in assay [1] is listed as 116.66 ± 17.26 % of control. In assay [2], the IC50 stood at 880 nM.

In the case of `N#CCc1ccc(Oc2ccc(NC(=O)Nc3cc(C(F)(F)F)cc(C(F)(F)F)c3)cc2)cc1` [compound 172, 1-(3,5-bis(trifluoromethyl)phenyl)-3-(4-(4-(cyanomethyl)phenoxy)phenyl) urea], the “SHP-1 Activity (% of control)” value in assay [1] was 215.34 ± 12.22 % of control. Further, the half-inhibitory concentration (IC50) in assay [2] was 410 nM.

As for `N#CCc1ccc(Oc2ccc(NC(=O)Nc3cccc(C(F)(F)F)c3)cc2)cc1` [compound 173, 1-(4-(4-(cyanomethyl)phenoxy)phenyl)-3-(3-(trifluoromethyl)phenyl)urea], the “SHP-1 Activity (% of control)” value in assay [1] was 110.75 ± 1.18 % of control. In assay [2], this molecule displayed a half-inhibitory concentration (IC50) greater than 10000 nM.

Turning to `Cc1cc(Oc2cc(NC(=O)Nc3cccc(C(F)(F)F)c3)ccc2Cl)ccc1C#N` [compound 174, 1-(4-chloro-3-(4-cyano-3-methylphenoxy)phenyl)-3-(3-(trifluoromethyl)phenyl)urea], the “SHP-1 Activity (% of control)” value in assay [1] was 203.95 ± 30.20 % of control. Besides, the IC50 in assay [2] came out at 1460 nM.
